# In EP1200395B1, “UREA DERIVATIVES AS INHIBITORS OF CCR-3 RECEPTOR” (KIRIN BEER KABUSHIKI KAISHA, priority 1999, dated 2001):
# Target: T1, CCR-3 (Homo sapiens, UniProt P51677)
# T1 sequence (P51677 1-355): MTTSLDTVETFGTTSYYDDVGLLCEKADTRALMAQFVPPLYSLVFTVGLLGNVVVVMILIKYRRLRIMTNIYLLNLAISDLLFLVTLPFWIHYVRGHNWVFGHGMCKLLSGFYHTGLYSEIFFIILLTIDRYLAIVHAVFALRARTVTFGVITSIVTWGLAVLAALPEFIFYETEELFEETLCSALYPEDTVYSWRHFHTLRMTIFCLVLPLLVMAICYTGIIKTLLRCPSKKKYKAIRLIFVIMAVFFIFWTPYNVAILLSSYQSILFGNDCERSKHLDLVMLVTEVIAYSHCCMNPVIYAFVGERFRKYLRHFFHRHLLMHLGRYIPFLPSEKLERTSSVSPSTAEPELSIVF
# Experiment: Calcium mobilization assay (inhibition of eotaxin-induced intracellular calcium mobilization in CCR3/HEK293 cells)
# Type: cell-based
# Design: expressed in transfected cells
# Conditions: 1.25 µg/ml test compound; eotaxin 10 nM; CCR3/HEK293 cells (Table 2b)
# Description: Compounds 93-162 used in this assay were synthesized by using the method described in Example 6.
# CCR-3 transfectant cells (CCR3/HEK293) were isolated and resuspended with assay buffer (20 mM HEPES, 125 mM NaCl, 5 mM KCl; 0.5 mM glucose, 1 mM CaCl2, 1 mM MgCl2, 0.1 % BSA). After washing CCR3/HEK293 cells with assay buffer, cells were loaded with Fura-2/AM in assay buffer for 1 hour at room temperature. Cells were washed and resuspended with assay buffer at 5 x 10^6 cells/ml in assay buffer, and placed in a tissue culture plate (Falcon, no. 3296). Test compounds dissolved in DMSO were added to the wells, followed by eotaxin (10 nM at final concentration). Cells were excited at 340 nm and 380 nm in a fluorimeter (ARGUS50, FDSS2000, Hamamatsu Photonics) and the relative ratio of the fluorescence emitted at 510 nm was recorded. For a control, DMSO without a test compound was added. Intracellular calcium mobilization was calculated as described in Krogel C. et al. , FEBS Let. (1989) 243 , 41-46.
row,SMILES,Ca^2+ mobilization 1.25 µg/ml (inhibition %) [%]
1,"CC[N+](CCCNC(=O)Nc1ccc(C#N)cc1)(CCOCCOC)CCc1cccc(Cl)c1.[I-] (centres unmarked) [Compound 394, [3-(4-Cyanophenylureido)propyl][2-(3-chlorophenyl)ethyl][2-(2-methoxyehtoxy)ethyl] ethylammonium iodide]",76
2,"CC[N+](CCCNC(=O)Nc1ccc(OC)cc1)(CCOCCOC)CCc1cccc(Cl)c1.[I-] (centres unmarked) [Compound 438, [3-(4-Methoxyphenylureido)propyl][2-(3-chlorophenyl)ethyl][2-(2-methoxyehtoxy)ethyl] ethylammonium iodide]",70
3,CC[N+](CCCNC(=O)Nc1ccc(Cl)c(Cl)c1)(CCOCCOC)CCc1ccc(Cl)cc1.[I-] (centres unmarked) [compound 355],63
4,CC[N+](CCCNC(=O)Nc1ccc(Cl)c(Cl)c1)(CCOCCOC)CCc1cccc(Cl)c1.[I-] (centres unmarked) [compound 356],57
5,CC[N+](CCCNC(=O)Nc1ccc(Cl)c(Cl)c1)(CCOCCOC)CCc1ccc(Cl)cc1Cl.[I-] (centres unmarked) [compound 357],57
6,CC[N+](CCCNC(=O)Nc1ccc(Cl)c(Cl)c1)(CCOCCOC)CCc1ccc(Cl)c(Cl)c1.[I-] (centres unmarked) [compound 358],63
7,CC[N+](CCCNC(=O)Nc1ccc(Cl)c(Cl)c1)(CCc1cccc(Cl)c1)CC1CCC1.[I-] (centres unmarked) [compound 361],70
8,CC[N+](CCCNC(=O)Nc1ccc(Cl)c(Cl)c1)(CCc1ccc(Cl)cc1Cl)CC1CCC1.[I-] (centres unmarked) [compound 362],49
9,CC[N+](CCCNC(=O)Nc1ccc(Cl)c(Cl)c1)(CCc1ccc(Cl)c(Cl)c1)CC1CCC1.[I-] (centres unmarked) [compound 363],56
10,C=C(C)C[N+](CC)(CCCNC(=O)Nc1ccc(Cl)c(Cl)c1)CCc1ccc(Cl)cc1.[I-] (centres unmarked) [compound 364],66

# Same assay, conditions: 6.25 µg/ml test compound; eotaxin 10 nM; CCR3/HEK293 cells (Table 2a)
row,SMILES,Ca^2+ mobilization 6.25 µg/ml (inhibition %) [%]
1,CCN(CCCNC(=O)Nc1ccc(Cl)c(C(F)(F)F)c1)C1CCCc2ccccc21 (centres unmarked) [Compound 93],50
2,CSCCCN(CCCNC(=O)Nc1ccc(Cl)c(C(F)(F)F)c1)Cc1ccc2c(c1)OCO2 [Compound 94],50
3,CC(C)CN(CCCNC(=O)Nc1ccc(Cl)c(C(F)(F)F)c1)CCc1ccccc1 [Compound 95],55
4,COc1ccc(CCN(CCCNC(=O)Nc2ccc(Cl)c(C(F)(F)F)c2)CC(C)C)cc1OC [Compound 96],53
5,O=C(NCCCN(C[C@@H]1CCCN1)C1CCCc2ccccc21)Nc1ccccc1-c1ccccc1 (some centres unmarked) [Compound 98],51
6,O=C(O)CCCN(CCCNC(=O)Nc1ccccc1-c1ccccc1)Cc1ccc2c(c1)OCO2 [Compound 101],63
7,COc1cc(CN(CCCNC(=O)Nc2ccccc2-c2ccccc2)CCCSC)cc(OC)c1OC [Compound 103],53
8,CSCCCN(CCCNC(=O)Nc1ccccc1-c1ccccc1)CCc1ccccc1 [Compound 105],53
9,CC(C)CN(CCCNC(=O)Nc1ccccc1-c1ccccc1)CCC(c1ccccc1)c1ccccc1 [Compound 117],55
10,O=C(NCCCN(CCOCc1ccccc1)C1CCCc2ccccc21)Nc1ccc(Br)cc1 (centres unmarked) [Compound 123],53
11,CSCCCN(CCCNC(=O)Nc1ccc(Br)cc1)C1CCCc2ccccc21 (centres unmarked) [Compound 124],55
12,O=C(NCCCN(CCOCc1ccccc1)Cc1ccc2c(c1)OCO2)Nc1ccc(Br)cc1 [Compound 127],59
13,CC(C)CN(CCCNC(=O)Nc1ccc(Br)cc1)Cc1ccc(C(F)(F)F)cc1 [Compound 129],50
14,CSCCCN(CCCNC(=O)Nc1ccc(Br)cc1)Cc1ccc(C(F)(F)F)cc1 [Compound 130],51
15,COc1cc(CN(CCCNC(=O)Nc2ccc(Br)cc2)CCC(C)C)cc(OC)c1OC [Compound 131],52
16,O=C(NCCCN(CCc1ccc(Cl)c(Cl)c1)C[C@@H]1CCCN1)Nc1ccc(Br)cc1 [Compound 134],59
17,COc1ccc(CCN(CCCNC(=O)Nc2cccc(C)c2)CCCSC)cc1OC [Compound 139],65
18,COc1ccc(CCN(CCCNC(=O)Nc2cccc(C)c2)CCCC(=O)O)cc1OC [Compound 140],54
19,CSCCCN(CCCNC(=O)Nc1cccc(C)c1)CCc1ccc(C)cc1 [Compound 141],53

row,SMILES,Ca^2+ mobilization 6.25 µg/ml (inhibition %) [%]
1,CSCCCN(CCCNC(=O)Nc1cccc(C)c1)CCc1ccc(Cl)c(Cl)c1 [Compound 142],58
2,Cc1cccc(NC(=O)NCCCN(CCc2ccc(Cl)c(Cl)c2)C[C@@H]2CCCN2)c1 [Compound 143],64
3,O=C(NCCCN(CCc1ccccc1)Cc1ccco1)Nc1cccc(Cl)c1 [Compound 144],51
4,CC(C)CCN(CCCNC(=O)Nc1cccc(Cl)c1)Cc1cccs1 [Compound 145],53
5,CCOC(=O)C1CC1CN(CCCNC(=O)Nc1cccc(Cl)c1)Cc1cccs1 (centres unmarked) [Compound 146],52
6,O=C(NCCCN(CCc1c[nH]cn1)CC1CCCCC1)Nc1cccc(Cl)c1 [Compound 147],51
7,O=C(NCCCN(CCOCc1ccccc1)CCc1c[nH]cn1)Nc1cccc(Cl)c1 [Compound 148],57
8,O=C(NCCCN(C[C@@H]1CCCN1)C1CCCc2ccccc21)Nc1cccc(Cl)c1 (some centres unmarked) [Compound 150],70
9,Cc1ccc(CCN(CCCNC(=O)Nc2cccc(Cl)c2)CC(C)C)cc1 [Compound 151],54
10,Cc1ccc(CCN(CCCNC(=O)Nc2cccc(Cl)c2)CCOCc2ccccc2)cc1 [Compound 152],54
11,CCOC(=O)C1CC1CN(CCCNC(=O)Nc1cccc(Cl)c1)CCc1ccc(C)cc1 (centres unmarked) [Compound 153],59
12,O=C(NCCCN(CCc1ccc(Cl)c(Cl)c1)CC1CCCCC1)Nc1cccc(Cl)c1 [Compound 154],55
13,COC(=O)CCCN(CCCNC(=O)Nc1cccc(Cl)c1)CCc1ccc(Cl)c(Cl)c1 [Compound 156],63
14,COc1ccc(NC(=O)NCCCN(CCCSC)C2CCCc3ccccc32)c(OC)c1 (centres unmarked) [Compound 157],53
15,COc1ccc(NC(=O)NCCCN(CCCSC)CCc2ccc(Cl)c(Cl)c2)c(OC)c1 [Compound 158],50
16,COc1ccc(NC(=O)NCCCN(CCOCc2ccccc2)CCc2ccc(OC)c(OC)c2)cc1 [Compound 159],51
17,COC(=O)CCCN(CCCNC(=O)Nc1ccc(Cl)c(Cl)c1)Cc1ccc2c(c1)OCO2 [Compound 160],58
18,O=C(O)CCCN(CCCNC(=O)Nc1cccc2ccccc12)Cc1ccc(C(F)(F)F)cc1 [Compound 161],51
19,CCOC(=O)C1CC1CN(CCCNC(=O)Nc1cccc2ccccc12)CCc1ccccc1 (centres unmarked) [Compound 162],50

# Target: T1, CCR-3
# Experiment: Eotaxin-induced chemotaxis of CCR-3 transfectant cells (CCR3/U937)
# Type: cell-based
# Design: expressed in transfected cells; host or cells: U937
# Conditions: test compound 0.1 µg/ml; eotaxin 1 x 10^-9 M; CCR3/U937 transfectants; 37 °C, 1 hour
row,SMILES,Chemotaxis Assay 0.1 µg/ml (inhibition %) [%]
1,CC[N+](CCF)(CCCNC(=O)Nc1ccccc1)CCc1ccc(Cl)c(Cl)c1.[I-] (centres unmarked) [compound 434],100
2,CC[N+](CCCNC(=O)Nc1ccc(OC)cc1)(CCOCCOC)CCc1cccc(F)c1.[I-] (centres unmarked) [compound 439],51
3,CCC(CC)C[N+](CC)(CCCNC(=O)Nc1ccc(OC)cc1)CCc1cccc(Cl)c1.[I-] (centres unmarked) [compound 448],82
4,CCC(CC)C[N+](CC)(CCCNC(=O)Nc1ccc(OC)cc1)CCc1ccc(Cl)c(Cl)c1.[I-] (centres unmarked) [compound 449],96
5,CCC(CC)C[N+](CC)(CCCNC(=O)Nc1ccc(OC)cc1)CCc1cccc(F)c1.[I-] (centres unmarked) [compound 450],35
6,CC[N+](CCF)(CCCNC(=O)Nc1ccc(OC)cc1)CCc1cccc(Cl)c1.[I-] (centres unmarked) [compound 451],92
7,CC[N+](CCF)(CCCNC(=O)Nc1ccc(OC)cc1)CCc1ccc(Cl)cc1Cl.[I-] (centres unmarked) [compound 452],59
8,CC[N+](CCF)(CCCNC(=O)Nc1ccc(OC)cc1)CCc1ccc(Cl)c(Cl)c1.[I-] (centres unmarked) [compound 453],87
